# Values of other authors, collected in article PMC5891061, “Electrophysiological mechanisms of vandetanib-induced cardiotoxicity: Comparison of action potentials in rabbit Purkinje fibers and pluripotent stem cell-derived cardiomyocytes” (PLoS ONE, 2018).
# Columns and labels:
# [1] = system: hiPSC-CMs; conditions: cited from earlier work
# [2] = biological target: INa in hiPSC-CMs (Homo sapiens, UniProt Q14524); conditions: hiPSC-CMs compared with HEK293 cells; cited from earlier work
# Chain of INa in hiPSC-CMs (Q14524 212-1075 limits assumed): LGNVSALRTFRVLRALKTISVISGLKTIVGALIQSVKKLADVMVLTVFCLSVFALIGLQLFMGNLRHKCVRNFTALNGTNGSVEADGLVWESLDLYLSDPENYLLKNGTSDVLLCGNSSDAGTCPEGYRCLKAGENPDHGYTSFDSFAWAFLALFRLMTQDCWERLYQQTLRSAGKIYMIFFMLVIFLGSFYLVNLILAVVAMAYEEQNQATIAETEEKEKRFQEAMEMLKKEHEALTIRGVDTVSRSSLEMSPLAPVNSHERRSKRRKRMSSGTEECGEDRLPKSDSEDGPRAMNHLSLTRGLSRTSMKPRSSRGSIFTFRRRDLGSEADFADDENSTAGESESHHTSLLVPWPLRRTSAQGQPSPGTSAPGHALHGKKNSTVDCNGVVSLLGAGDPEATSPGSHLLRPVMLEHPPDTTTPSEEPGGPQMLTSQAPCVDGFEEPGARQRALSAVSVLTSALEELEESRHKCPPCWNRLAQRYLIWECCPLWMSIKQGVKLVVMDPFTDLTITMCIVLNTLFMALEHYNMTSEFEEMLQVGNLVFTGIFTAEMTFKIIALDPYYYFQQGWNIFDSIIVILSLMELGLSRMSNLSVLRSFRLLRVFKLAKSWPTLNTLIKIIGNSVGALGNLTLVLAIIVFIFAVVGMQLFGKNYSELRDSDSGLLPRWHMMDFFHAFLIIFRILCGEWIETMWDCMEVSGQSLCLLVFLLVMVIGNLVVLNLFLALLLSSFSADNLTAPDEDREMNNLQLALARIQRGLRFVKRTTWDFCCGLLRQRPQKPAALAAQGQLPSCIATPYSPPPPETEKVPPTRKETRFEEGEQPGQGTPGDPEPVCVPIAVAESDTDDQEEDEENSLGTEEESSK
# Chain of INa in hiPSC-CMs (Q14524 1131-2016 limits assumed): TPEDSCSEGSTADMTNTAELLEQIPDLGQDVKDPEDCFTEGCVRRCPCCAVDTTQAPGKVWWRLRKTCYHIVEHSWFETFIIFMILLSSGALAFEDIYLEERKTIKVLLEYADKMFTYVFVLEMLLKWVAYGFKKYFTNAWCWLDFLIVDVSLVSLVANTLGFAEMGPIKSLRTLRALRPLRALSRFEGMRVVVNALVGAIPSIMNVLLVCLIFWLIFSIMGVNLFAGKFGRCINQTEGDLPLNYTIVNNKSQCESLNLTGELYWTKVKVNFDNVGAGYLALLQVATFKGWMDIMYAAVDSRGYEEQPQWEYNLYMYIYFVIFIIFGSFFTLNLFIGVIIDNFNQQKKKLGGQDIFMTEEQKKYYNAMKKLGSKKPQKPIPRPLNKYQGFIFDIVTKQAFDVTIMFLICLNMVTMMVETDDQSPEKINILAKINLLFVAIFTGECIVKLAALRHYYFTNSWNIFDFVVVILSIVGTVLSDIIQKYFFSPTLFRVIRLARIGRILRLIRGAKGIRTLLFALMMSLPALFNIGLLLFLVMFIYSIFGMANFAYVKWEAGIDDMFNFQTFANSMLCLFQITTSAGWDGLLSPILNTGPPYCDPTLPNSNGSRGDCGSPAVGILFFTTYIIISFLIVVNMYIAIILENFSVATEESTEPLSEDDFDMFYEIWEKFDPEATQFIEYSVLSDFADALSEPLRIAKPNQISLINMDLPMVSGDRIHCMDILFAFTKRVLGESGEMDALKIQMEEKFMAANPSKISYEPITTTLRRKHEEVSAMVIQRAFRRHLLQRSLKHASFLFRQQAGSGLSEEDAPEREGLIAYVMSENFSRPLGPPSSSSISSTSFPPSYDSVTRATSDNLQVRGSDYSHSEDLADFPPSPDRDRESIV
structure (smiles),measurement,setting,value
CCc1nn(CCCN2CCN(c3cccc(Cl)c3)CC2)c(=O)n1CCOc1ccccc1 [nefazodone],Effect on Vmax,[1],significantly decreased
same,"Block of INa, sensitivity",[2],greater sensitivity than in HEK293 cells
